Assay results published in patent US20240148821A1, “PHARMACEUTICAL USE OF CYCLIC PEPTIDE COMPOUND” (CHUGAI SEIYAKU KABUSHIKI KAISHA, priority 2021, published 2024).
Numbered stars: 1 amine (or outer) side, 2 acyl side, 3 side chain; on linkers, the order of the positions; unused ones are H or OH. Bridge positions count the residues as written; N and C are the ends. Square brackets hold non-standard residues; d marks the D form. Peptide text beside a SMILES is read from it. * marks the point of attachment. hPhe(3-Cl-4-CF3) = N[C@@H](CCc1ccc(C(F)(F)F)c(Cl)c1)C(=O)O; hPhe(3-F,4-CF3) = N[C@@H](CCc1ccc(C(F)(F)F)c(F)c1)C(=O)O; NMePhe(4-CF3) = CN[C@@H](Cc1ccc(C(F)(F)F)cc1)C(=O)O; hPhe(4-CF3) = N[C@@H](CCc1ccc(C(F)(F)F)cc1)C(=O)O; NMePhe(4-Cl) = CN[C@@H](Cc1ccc(Cl)cc1)C(=O)O; NMedβ3hAla = C[C@H](CC(=O)[*:2])N(C)[*:1]; NMeGly(cPent) = CN[C@H](C(=O)O)C1CCCC1; NMeCha = CN[C@@H](CC1CCCCC1)C(=O)O; NMehLeu = CN[C@@H](CCC(C)C)C(=O)O; NEtLeu = CCN[C@@H](CC(C)C)C(=O)O; NMeF = CN[C@@H](Cc1ccccc1)C(=O)O; NMeI = CC[C@H](C)[C@H](NC)C(=O)O; NMeD = CN[C@@H](CC(=O)O)C(=O)O; NMeL = CN[C@@H](CC(C)C)C(=O)O; NMeV = CN[C@H](C(=O)O)C(C)C; d(β3hA) = C[C@@H](N)CC(=O)O; Morpholide = C1CN(*)CCO1; NMeA = CN[C@@H](C)C(=O)O; Piperidide = C1CCN(*)CC1; Pyrrolidide = C1CCN(*)C1; Ac5c = NC1(C(=O)O)CCCC1; Aze = O=C(O)[C@@H]1CCN1; Sar = CNCC(=O)O

The compounds below were run against protein-protein interaction between Kras and SOS1 (biotin-tagged human Kras loaded with GDP, His-tagged human SOS1) (Homo sapiens (Human), UniProt P01116, G12D) (assay: Protein-protein interaction inhibition between Kras and SOS1 (KrasG12D-SOS PPI) using AlphaScreen). Details: AlphaScreen; biotin-tagged human Kras loaded with GDP, His-tagged human SOS1; read-out: KRAS G12D-SOS PPI IC50.
Assay type: biochemical

SMILES | IC50 [nM]
CC[C@H](C)[C@@H]1NC(=O)[C@H](CC(C)C)N(C)C(=O)C[C@@H](C(=O)N2CCCC2)N(C)C(=O)[C@H](C2CCCC2)N(C)C(=O)C2(CCCC2)NC(=O)[C@@H]2CCCN2C(=O)[C@H](CCc2ccc(C(F)(F)F)c(F)c2)NC(=O)CN(C)C(=O)[C@H](C2CCCC2)N(C)C(=O)[C@@H]2CCN2C(=O)[C@H](C)N(C)C1=O [Compound 918] ([NMeL]I[NMeA][Aze][NMeGly(cPent)][Sar][hPhe(3-F,4-CF3)]P[Ac5c][NMeGly(cPent)][NMeD]-Pyrrolidide; lactam N-11) | 0.89
CC[C@H](C)[C@@H]1NC(=O)[C@H](CC(C)C)N(C)C(=O)C[C@@H](C)NC(=O)[C@H](C2CCCC2)N(C)C(=O)C2(CCCC2)NC(=O)[C@@H]2CCCN2C(=O)[C@H](CCc2ccc(C(F)(F)F)c(Cl)c2)NC(=O)CN(C)C(=O)[C@H](Cc2ccc(C(F)(F)F)cc2)N(C)C(=O)[C@@H]2CCN2C(=O)[C@H](C)N(C)C1=O [Compound 1475] (cyclo([Ac5c][NMeGly(cPent)][d(β3hA)][NMeL]I[NMeA][Aze][NMePhe(4-CF3)][Sar][hPhe(3-Cl-4-CF3)]P)) | 2.7
CC[C@H](C)[C@@H]1NC(=O)[C@H](CCC(C)C)N(C)C(=O)C[C@@H](C(=O)N2CCCCC2)N(C)C(=O)[C@H](C(C)C)N(C)C(=O)C2(CCCC2)NC(=O)[C@@H]2CCCN2C(=O)[C@H](CCc2ccc(C(F)(F)F)c(Cl)c2)NC(=O)CN(C)C(=O)[C@H](CC2CCCCC2)N(C)C(=O)[C@@H]2CCN2C(=O)[C@H](C)N(C)C1=O [Compound 1833] ([NMehLeu]I[NMeA][Aze][NMeCha][Sar][hPhe(3-Cl-4-CF3)]P[Ac5c][NMeV][NMeD]-Piperidide; lactam N-11) | 7.5
CC[C@H](C)[C@@H]1NC(=O)[C@H](C)N(C)C(=O)C[C@@H](C)N(C)C(=O)[C@H](CC(C)C)NC(=O)[C@H](Cc2ccccc2)N(C)C(=O)[C@H](CC(C)C)NC(=O)[C@H](CCc2ccc(C(F)(F)F)cc2)NC(=O)CN(C)C(=O)[C@H](Cc2ccc(Cl)cc2)N(C)C(=O)CN(C)C(=O)CN(C)C1=O [Compound 214] (cyclo(I[Sar][Sar][NMePhe(4-Cl)][Sar][hPhe(4-CF3)]L[NMeF]L[NMedβ3hAla][NMeA])) | 280
CC[C@H](C)[C@@H]1NC(=O)[C@H](CC(C)C)N(CC)C(=O)C[C@@H](C(=O)N2CCOCC2)N(C)C(=O)[C@H](C2CCCC2)N(C)C(=O)C2(CCCC2)NC(=O)[C@@H]2CCCN2C(=O)[C@H](CCc2ccc(C(F)(F)F)c(Cl)c2)NC(=O)CN(C)C(=O)[C@H](C2CCCC2)N(C)C(=O)[C@@H]2CCN2C(=O)[C@H](C)NC1=O [Compound 1140] ([NEtLeu]IA[Aze][NMeGly(cPent)][Sar][hPhe(3-Cl-4-CF3)]P[Ac5c][NMeGly(cPent)][NMeD]-Morpholide; lactam N-11) | 2
CC[C@H](C)[C@@H]1NC(=O)[C@H](CC(C)C)N(C)C(=O)C[C@@H](C)N(C)C(=O)[C@H]([C@@H](C)CC)N(C)C(=O)C2(CCCC2)NC(=O)[C@@H]2CCCN2C(=O)[C@H](CCc2ccc(C(F)(F)F)c(F)c2)NC(=O)CN(C)C(=O)[C@H](C2CCCC2)N(C)C(=O)[C@@H]2CCN2C(=O)[C@H](C)N(C)C1=O [Compound 909] (cyclo([Ac5c][NMeI][NMedβ3hAla][NMeL]I[NMeA][Aze][NMeGly(cPent)][Sar][hPhe(3-F,4-CF3)]P)) | 20
CC[C@H](C)[C@@H]1NC(=O)[C@H](CC(C)C)N(C)C(=O)C[C@@H](C(=O)N2CCCCC2)N(C)C(=O)[C@H]([C@@H](C)CC)N(C)C(=O)C2(CCCC2)NC(=O)[C@@H]2CCCN2C(=O)[C@H](CCc2ccc(C(F)(F)F)c(Cl)c2)NC(=O)CN(C)C(=O)[C@H](C2CCCC2)N(C)C(=O)[C@@H]2CCN2C(=O)[C@H](C)N(C)C1=O [Compound 807] ([NMeL]I[NMeA][Aze][NMeGly(cPent)][Sar][hPhe(3-Cl-4-CF3)]P[Ac5c][NMeI][NMeD]-Piperidide; lactam N-11) | 0.74
